Values quoted from earlier work as cited in patent US11229703B2, “Radiotherapy improvements” (NOXOPHARM LIMITED, priority 2016, dated 2022).

Legend:
[1] = system: cancer, especially metastatic disease involving solid tumours; conditions: compound alone, various clinical trials
[2] = system: hormone refractory prostate cancer; conditions: males with hormone refractory prostate cancer given idronoxil ranging from 20 to 400 mg; 6 months from treatment

Structure (SMILES) | complete or partial response to cancer [1] | disease progression [2]
O=c1c(-c2ccc(O)cc2)coc2cc(O)cc(O)c12 [genestein, reference compound] | unable to provide either a complete or partial response | –
Oc1ccc(C2=Cc3ccc(O)cc3OC2)cc1 [idronoxil, 2H-1-Benzopyran-7-0,1,3-(4-hydroxyphenyl)] | unable to provide either a complete or partial response | disease had progressed in most individuals by 6 months
